Results published in the CheMixHub ionic liquid set.
Where “and” joins values, the source holds several entries; their conditions need not be identical. Equal entries are not always repeated.

Test: xn = mol fraction of the nth substance listed

CC[n+]1ccn(C)c1.O=S(=O)([O-])C(F)(F)F + O=S(=O)([O-])C(F)(F)F.[Li+]
101 kPa, x1 = 1
Settings | electrical conductivity [S/m]
288.15 K | 0.605
298.15 K | 0.859
333.15 K | 2.24

CC[n+]1ccn(C)c1.O=S(=O)([O-])C(F)(F)F + O=[N+]([O-])[O-].[Li+]
101 kPa, x1 = 1
Settings | electrical conductivity [S/m]
288.15 K | 0.605
298.15 K | 0.859
333.15 K | 2.24

CCCC[P+](CCCC)(CCCC)CCCC.[Br-] + OCC(O)CO
101.3 kPa, x1 = 0.333
Settings | viscosity [mPa·s]
293.15 K | 468
298.15 K | 329
303.15 K | 235
308.15 K | 172
313.15 K | 116
318.15 K | 97.1
323.15 K | 68.4

CC[n+]1ccn(C)c1.O=S(=O)([O-])C(F)(F)F + OCC(O)CO
100 kPa
Settings | electrical conductivity [S/m] | viscosity [mPa·s]
293.15 K, x1 = 0.002 | – | 1372
293.15 K, x2 = 0.199 | – | 48.9
293.15 K, x2 = 0.605 | – | 97.9
293.15 K, x2 = 0.698 | – | 146.4
293.15 K, x2 = 0.962 | – | 968
298.15 K, x1 = 0.002 | 0.000274 | –
298.15 K, x1 = 0.004 | 0.00056 | –
298.15 K, x1 = 0.011 | 0.00141 | –
298.15 K, x1 = 0.018 | 0.00247 | –
298.15 K, x2 = 0.401 | 0.68 | 45.4
303.15 K, x2 = 0.962 | – | 425
313.15 K, x1 = 0.002 | 0.00084 | –
313.15 K, x1 = 0.004 | 0.00176 | –
313.15 K, x1 = 0.011 | 0.00439 | –
313.15 K, x1 = 0.018 | 0.0079 | 243
313.15 K, x2 = 0.299 | 1.27 | 23.4

CCCC[P+](CCCC)(CCCC)CCCC.[Br-] + OCC(O)CO + O
viscosity [mPa·s], 101.3 kPa
Settings | x1 = 0.03663, x2 = 0.07337 | x1 = 0.06194, x2 = 0.1241 | x1 = 0.09824, x2 = 0.1968 | x1 = 0.1305, x2 = 0.2615 | x1 = 0.1725, x2 = 0.3455 | x1 = 0.1845, x2 = 0.3695 | x1 = 0.2344, x2 = 0.4696 | x1 = 0.2594, x2 = 0.5196 | x1 = 0.3007, x2 = 0.6023 | x1 = 0.333, x2 = 0.667
293.15 K | 9.46 | 24.1 | 60.1 | 99 | 156 | 170 | 249 | 300 | 393 | 468
298.15 K | 7.51 | 18.5 | 45.8 | 72.1 | 109 | 120 | 176 | 212 | 276 | 329
303.15 K | 6.25 | 15 | 35.7 | 55 | 79.9 | 90.9 | 130 | 154 | 198 | 235
308.15 K | 5.21 | 12 | 28.3 | 42.6 | 62.8 | 67.8 | 96.5 | 118 | 145 | 172
313.15 K | 4.15 | 9.9 | 22.1 | 32.4 | 47 | 49.3 | 66.5 | 88.4 | 99 | 116
318.15 K | 3.74 | 8.49 | 18 | 26.4 | 38.4 | 41.4 | 57.6 | 67.5 | 83.2 | 97.1
323.15 K | 3.26 | 7.02 | 14.5 | 21 | 29 | 31.2 | 42.5 | 50.4 | 57.9 | 68.4

CCCC[P+](CC)(CCCC)CCCC.[Br-] + OCCO
101 kPa, x1 = 0.333
Settings | viscosity [mPa·s]
303.15 K | 43.82
313.15 K | 29.04
323.15 K | 20.08
333.15 K | 14.44
343.15 K | 10.69
353.15 K | 8.22

CCCC[P+](CCCC)(CCCC)CCCC.[Br-] + OCCO
101.3 kPa, x1 = 0.333
Settings | viscosity [mPa·s]
293.15 K | 122
323.15 K | 29.9

CC[n+]1ccn(C)c1.O=S(=O)([O-])C(F)(F)F + OCCO
100 kPa
Settings | electrical conductivity | viscosity [mPa·s]
293.15 K, x1 = 0.001 | – | 20.7
293.15 K, x1 = 0.007 | – | 20.4
293.15 K, x2 = 0.974 | – | 19.6
298.15 K, x1 = 0.001 | 0.0058 S/m and 0.0109 S/m | 16.9
298.15 K, x2 = 0.798 | – | 16.62
303.15 K, x1 = 0.013 | – | 13.4
303.15 K, x2 = 0.0943 | – | 30.94
303.15 K, x2 = 0.2 | – | 23.4
308.15 K, x2 = 0.6019 | – | 13.71
308.15 K, x2 = 0.8964 | – | 11.78
313.15 K, x1 = 0.001 | 0.01 S/m and 0.0188 S/m | 9.53
313.15 K, x2 = 0.408 | – | 13.87
313.15 K, x2 = 0.497 | – | 10.6
313.15 K, x2 = 0.808 | 1.51 S/m | 8
318.15 K, x2 = 0.0943 | – | 19.42
323.15 K, x2 = 0.0943 | – | 16.91
323.15 K, x2 = 0.2021 | – | 13.96
323.15 K, x2 = 0.408 | – | 11.12

CCCC[P+](CCCC)(CCCC)CCCC.[Br-] + OCCO + O
viscosity [mPa·s], 101.3 kPa
Settings | x1 = 0.0383, x2 = 0.0767 | x1 = 0.06893, x2 = 0.1381 | x1 = 0.09557, x2 = 0.1914 | x1 = 0.1302, x2 = 0.2608 | x1 = 0.1675, x2 = 0.3355 | x1 = 0.1968, x2 = 0.3942 | x1 = 0.2368, x2 = 0.4742 | x1 = 0.2634, x2 = 0.5276 | x1 = 0.3054, x2 = 0.6116 | x1 = 0.333, x2 = 0.667
293.15 K | 4.67 | 11.5 | 20.5 | 35.1 | 50.8 | 62 | 74.1 | 82.3 | 105 | 122
298.15 K | 3.8 | 9.08 | 16.1 | 27.2 | 38.8 | 48.1 | 57 | 64.1 | 78.1 | 93.4
303.15 K | 3.15 | 7.34 | 13 | 21.7 | 31 | 38.2 | 44.5 | 49.4 | 63.7 | 72.4
308.15 K | 2.74 | 6.11 | 10.6 | 17.7 | 24.9 | 30.1 | 35.3 | 39.5 | 50.2 | 56.9
313.15 K | 2.35 | 5.21 | 8.88 | 14.4 | 20.5 | 24.5 | 28.3 | 32.2 | 39.9 | 45.3
318.15 K | 2.08 | 4.43 | 7.33 | 11.9 | 16.8 | 20.1 | 23.1 | 26.4 | 32.4 | 36.6
323.15 K | 1.84 | 3.8 | 6.34 | 10.1 | 13.9 | 16.8 | 19 | 21.9 | 26.6 | 29.9

CCCC[P+](CC)(CCCC)CCCC.[Br-] + OCCOCCO
101 kPa, x1 = 0.333
Settings | viscosity [mPa·s]
333.15 K | 23.07
353.15 K | 12.73
